Here are results for 22 molecules from US20240400553A1, “AMINE BASED MATRIPTASE 2 INHIBITORS AND USES THEREOF” (Disc Medicine, Inc., priority 2023, published 2024).

The first assay deals with T1, Human Recombinant Matriptase 2 (Homo sapiens, UniProt Q8IU80).
T1 construct: made in house
T1 sequence (Q8IU80 1-811): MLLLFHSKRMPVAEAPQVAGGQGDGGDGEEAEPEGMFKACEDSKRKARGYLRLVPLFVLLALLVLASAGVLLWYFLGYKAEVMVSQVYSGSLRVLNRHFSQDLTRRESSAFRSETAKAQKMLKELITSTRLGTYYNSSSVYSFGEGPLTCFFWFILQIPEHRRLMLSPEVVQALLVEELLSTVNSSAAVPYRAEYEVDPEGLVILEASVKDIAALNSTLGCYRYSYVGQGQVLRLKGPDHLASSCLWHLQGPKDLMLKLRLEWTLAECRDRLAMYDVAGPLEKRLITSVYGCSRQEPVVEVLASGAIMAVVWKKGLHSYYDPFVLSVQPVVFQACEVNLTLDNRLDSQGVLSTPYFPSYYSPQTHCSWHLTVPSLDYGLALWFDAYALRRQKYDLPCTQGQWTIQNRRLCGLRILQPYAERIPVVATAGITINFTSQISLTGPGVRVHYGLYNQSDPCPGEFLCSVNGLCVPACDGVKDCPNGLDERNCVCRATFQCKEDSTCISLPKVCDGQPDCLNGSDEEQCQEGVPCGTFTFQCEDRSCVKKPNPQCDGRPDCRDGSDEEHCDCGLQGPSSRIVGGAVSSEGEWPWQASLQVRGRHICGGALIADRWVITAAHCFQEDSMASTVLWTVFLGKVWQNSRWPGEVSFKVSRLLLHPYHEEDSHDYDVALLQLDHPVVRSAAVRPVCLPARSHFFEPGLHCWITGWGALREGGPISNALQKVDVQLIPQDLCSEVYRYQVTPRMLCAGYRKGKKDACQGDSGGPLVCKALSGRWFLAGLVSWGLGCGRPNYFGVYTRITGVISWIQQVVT
In words: Matriptase 2 inhibition, fluorescence based assay (Method I). It counts as biochemical. As to conditions: Table A; Ki of Matriptase-2; read-out: Mat-2 Ki. A digest of the protocol:
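In-house recombinant enzyme (3.5 nM), preincubated 30 min with compound, then Boc-Gln-Ala-Arg-AMC substrate (62 μM) in 50 mM Tris pH 7.5, 150 mM NaCl, 0.01% gelatin, 1% DMSO, 25 °C. Fluorescence (Ex 360/Em 480 nm) read 60 min after substrate; IC50 from variable-slope sigmoidal fit of % inhibition.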
What is called Ki is the equilibrium dissociation constant of an inhibitor or competing ligand from its target. On to `C[C@@H](c1ccccc1)S(=O)(=O)Nc1cc(Cn2c(C(=O)O)cc3ccc(CN)nc32)c2ccccc2c1` (racemic) [Compound 73, 6-(aminomethyl)-1-{[3-(1-phenylethanesulfon-amido)naphthalen-1-yl]-methyl}-1H-pyrrolo[2,3-b]pyridine-2-carboxylic acid], for which the inhibitory constant (Ki) is no more than 100 nM.

Turning to `NCc1ccc2cc(C(=O)OC[C@H]3CNCCO3)n(Cc3cc(NS(=O)(=O)Cc4ccsc4)cc4ccccc34)c2n1` [Compound 170, [(2R)-morpholin-2-yl]-methyl 6-(aminomethyl)-1-({3-[(thiophen-3-yl)-methanesulfonamido]-naphthalen-1-yl}meth-yl)-1H-pyrrolo[2,3-b]-pyridine-2-carboxylate], the inhibition constant (Ki) is no more than 100 nM.

For the molecule `CNCCOC(=O)c1cc2ccc(CN)nc2n1Cc1cc(NS(=O)(=O)Cc2ccsc2)cc2ccccc12` [Compound 175, 2-(methylamino)ethyl 6-(aminomethyl)-1-({3-[(thiophen-3-yl)methane-sulfonamido]naphthalen-1-yl}methyl)-1H-pyr-rolo[2,3-b]pyridine-2-carboxylate], the Ki is no more than 100 nM.

Take `NCc1ccc2cc(C(=O)OCCO)n(Cc3cc(NS(=O)(=O)Cc4ccccc4)cc4ccccc34)c2n1` [Compound 82, 2-hydroxyethyl 6-(amino-methyl)-1-{[3-(phenyl-methanesulfonamido)-naphthalen-1-yl]methyl}-1H-pyrrolo[2,3-b]pyr-idine-2-carboxylate]: the Ki fell in the range of 100 to 500 nM.

For the molecule `COCCN1CCC(COC(=O)c2cc3ccc(CN)nc3n2Cc2cc(NS(=O)(=O)Cc3ccsc3)cc3ccccc23)CC1` [Compound 167, [1-(2-methoxyethyl)-piperidin-4-yl]methyl 6-(aminomethyl)-1-({3-[(thiophen-3-yl)meth-anesulfonamido]naph-thalen-1-yl}methyl)-1H-pyrrolo[2,3-b]pyridine-2-carboxylate], the Ki was no more than 100 nM.

Regarding `CC(C)(C)n1cnc(COC(=O)c2cc3ccc(CN)nc3n2Cc2cc(NS(=O)(=O)Cc3ccccc3)cc3ccccc23)c1` [Compound 96, (1-tert-butyl-1H-imid-azol-4-yl)methyl 6-(aminomethyl)-1-{[3-(phenylmethanesulfon-amido)naphthalen-1-yl]-methyl}-1H-pyrrolo[2,3-b]pyridine-2-carboxylate], the Ki was 100 to 500 nM.

As to `CN1CCC(CCS(=O)(=O)NC(=O)c2cc3ccc(CN)nc3n2Cc2cc(NS(=O)(=O)Cc3ccccc3)cc3ccccc23)CC1` [Compound 83, 6-(aminomethyl)-N-[2-(1-methylpiperidin-4-yl)-ethanesulfonyl]-1-{[3-(phenylmethanesulfon-amido)naphthalen-1-yl]-methyl}-1H-pyrrolo[2,3-b]pyridine-2-carboxamide], the inhibition constant (Ki) was 100 to 500 nM.

On to `COCCN1CCC(COC(=O)c2cc3ccc(CN)nc3n2Cc2cc(NS(=O)(=O)Cc3ccccc3)cc3ccccc23)CC1` [Compound 142, [1-(2-methoxyethyl)-piperidin-4-yl]methyl 6-(aminomethyl)-1-{[3-(phenylmethanesulfon-amido)naphthalen-1-yl]-methyl}-1H-pyrrolo[2,3-b]pyridine-2-carboxylate], for which the Ki was in the range of 100 to 500 nM.

For the molecule `COCCN1CC[C@H](COC(=O)c2cc3ccc(CN)nc3n2Cc2cc(NS(=O)(=O)Cc3c(C)cccc3C)cc3ccccc23)C1` (racemic) [Compound 194, [1-(2-methoxyethyl)pyr-rolidin-3-yl]methyl 6-(aminomethyl)-1-({3-[(2,6-dimethylphenyl)-methanesulfonamido]-naphthalen-1-yl}meth-yl)-1H-pyrrolo[2,3-b]-pyridine-2-carboxylate], the inhibition constant (Ki) was no more than 100 nM.

`CN1CCC[C@H](COC(=O)c2cc3ccc(CN)nc3n2Cc2cc(NS(=O)(=O)Cc3ccccc3)cc3ccccc23)C1` (racemic) [Compound 24, (1-methylpiperidin-3-yl)methyl 6-(amino-methyl)-1-{[3-(phenyl-methanesulfonamido)-naphthalen-1-yl]methyl}-1H-pyrrolo[2,3-b]pyr-idine-2-carboxylate]: the Ki was no more than 100 nM.

The same assay, now with this note: Table A; Ki of Matriptase-2 given as class symbols; read-out: Mat-2 Ki.
With `NCc1ccc2cc(C(=O)O)n(Cc3cc(NS(=O)(=O)CCCN4CCCC4)cc4ccccc34)c2n1` [Compound 232, 6-(aminomethyl)-1-({3-[3-(pyrrolidin-1-yl)-propanesulfonamido]-naphthalen-1-yl}methyl)-1H-pyrrolo[2,3-b]pyr-idine-2-carboxylic acid], the inhibitory constant (Ki) lay within 100 to 500 nM.

Take `COCCN1CCN(CCS(=O)(=O)Nc2cc(Cn3c(C(=O)O)cc4ccc(CN)cc43)c3ccccc3c2)CC1` [Compound 388, 6-(aminomethyl)-1-[(3-{2-[4-(2-methoxyethyl)-piperazin-1-yl]ethanesul-fonamido}naphthalen-1-yl)methyl]-1H-indole-2-carboxylic acid]: the Ki lay within 100 to 500 nM.

For the molecule `CN1CCC(COC(=O)c2cc3ccc(CN)nc3n2Cc2cc(NS(=O)(=O)CC[C@H]3CCCN3)cc3ccccc23)CC1` [Compound 281, (1-methylpiperidin-4-yl)methyl 6-(aminometh-yl)-1-[(3-{2-[(2R)-pyr-rolidin-2-yl]ethanesul-fonamido}naphthalen-1-yl)methyl]-1H-pyrrolo-[2,3-b]pyridine-2-car-boxylate], the inhibition constant (Ki) was in the range of 500 to 3000 nM.

Consider `COCCN1CCC(CS(=O)(=O)Nc2cc(Cn3c(C(=O)O)cc4ccc(CN)nc43)c3ccccc3c2)CC1` [Compound 211, 6-(aminomethyl)-1-[(3-{[1-(2-methoxyethyl)-piperidin-4-yl]methane-sulfonamido}naphthalen-1-yl)methyl]-1H-pyr-rolo[2,3-b]pyridine-2-carboxylic acid], for which the Ki is no more than 100 nM.

With `NCc1ccc2cc(C(=O)O)n(Cc3cc(NS(=O)(=O)Cc4ccsc4)cc4c3CCCC4)c2n1` [Compound 287, 6-(aminomethyl)-1-({3-[(thiophen-3-yl)methane-sulfonamido]-5,6,7,8-tetrahydronaphthalen-1-yl}methyl)-1H-pyrrolo-[2,3-b]pyridine-2-carbox-ylic acid], the inhibitory constant (Ki) lay in the range of 100 to 500 nM.

For the molecule `CN1CCC(OC(=O)c2cc3ccc(CN)cc3n2Cc2cc(NS(=O)(=O)Cc3ccccc3)cc3ccccc23)CC1` [Compound 371, 1-methylpiperidin-4-yl 6-(aminomethyl)-1-((3-((phenylmethyl)sulfonamido)naphthalen-1-yl)methyl)-1H-indole-2-carboxylate], the Ki is no more than 100 nM.

For `CN(C)Cc1nnc(-c2cc3ccc(CN)nc3n2Cc2cc(NS(=O)(=O)Cc3ccccc3)cc3ccccc23)o1` [Compound 347, N-(4-{[6-(aminomethyl)-2-{5-[(dimethylamino)-methyl]-1,3,4-oxadiazol-2-yl}-1H-pyrrolo[2,3-b]pyridin-1-yl]methyl}-naphthalen-2-yl)-1-phen-ylmethanesulfonamide], the inhibitory constant (Ki) lay within 100 to 500 nM.

As for `C[C@@H](C(=O)N(C)C)S(=O)(=O)Nc1cc(Cn2c(C(=O)O)cc3ccc(CN)nc32)c2ccccc2c1` (racemic) [Compound 255, rac-6-(aminomethyl)-1-({3-(dimethylcarbam-oyl)ethanesulfonamido]-naphthalen-1-yl}methyl)-1H-pyrrolo[2,3-b]pyr-idine-2-carboxylic acid], the inhibition constant (Ki) was no more than 100 nM.

Turning to `CC(C)N(CCOC(=O)Nc1cc(Cn2c(C(=O)O)cc3ccc(CN)nc32)c2ccccc2c1)C(C)C` [Compound 338, 6-(aminomethyl)-1-({3-[({2-[bis(propan-2-yl)-amino]ethoxy}carbonyl)-amino]naphthalen-1-yl}-methyl)-1H-pyrrolo[2,3-b]pyridine-2-carboxylic acid], the Ki lay within 500 to 3000 nM.

In the case of `CCOC(=O)c1cc2ccc(CN)nc2n1Cc1cc(NS(=O)(=O)CC2CCNCC2)cc2ccccc12` [Compound 241, ethyl 6-(aminomethyl)-1-({3-[(piperidin-4-yl)-methanesulfonamido]-naphthalen-1-yl}methyl)-1H-pyrrolo[2,3-b]pyr-idine-2-carboxylate], the Ki is 100 to 500 nM.

As to `CCOC(=O)c1cc2ccc(CN)nc2n1Cc1cc(NS(=O)(=O)CC[C@@H]2CCCN2)cc2ccccc12` [Compound 269, ethyl 6-(aminomethyl)-1-[(3-{2-[(2S)-pyrrolidin-2-yl]ethanesulfonamido}-naphthalen-1-yl)methyl]-1H-pyrrolo[2,3-b]pyr-idine-2-carboxylate], the Ki lay in the range of 500 to 3000 nM.

Still in this assay, the particulars now being: Table B; Human Recombinant Matriptase 2, 3.5 nM enzyme, 62 μM substrate, 30 mins preincubation; read-out: Mean Ki.
`NCc1ccc2cc(C(=O)NCc3ccc(N)cc3)n(Cc3cc(NS(=O)(=O)Cc4ccccc4)cc4ccccc34)c2n1` [Compound 2.24]: the Ki is no more than 100 nM.
